The values below come from patent publication US9783527B2, “Indazole ureas and method of use” (AbbVie Inc., priority 2014, dated 2017).

SMILES strings stand for the structures.

The assay deals with human Nav1.7 (Homo sapiens (Human), UniProt Q15858). The assay is described as follows: FRET-based membrane potential assay, recombinant human sodium channel Nav1.7. Particulars: HEK293 cells stably expressing recombinant human Nav1.7; depolarization with veratridine (EC80) + scorpion venom. In kind it is cell-based. In a few lines: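 IC50 derived by four-parameter Hill fit of percent inhibition of depolarization, measured as peak F440-480/F565-625 ratio over baseline. Stable human Nav1.7 HEK293 cells, dye-loaded with CC2-DMPE and DiSBAC2(3)/VABSC-1 at room temperature, received compound 3 min ahead of veratridine (EC80) plus scorpion venom.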
Chain of human Nav1.7 (Q15858 whole entry): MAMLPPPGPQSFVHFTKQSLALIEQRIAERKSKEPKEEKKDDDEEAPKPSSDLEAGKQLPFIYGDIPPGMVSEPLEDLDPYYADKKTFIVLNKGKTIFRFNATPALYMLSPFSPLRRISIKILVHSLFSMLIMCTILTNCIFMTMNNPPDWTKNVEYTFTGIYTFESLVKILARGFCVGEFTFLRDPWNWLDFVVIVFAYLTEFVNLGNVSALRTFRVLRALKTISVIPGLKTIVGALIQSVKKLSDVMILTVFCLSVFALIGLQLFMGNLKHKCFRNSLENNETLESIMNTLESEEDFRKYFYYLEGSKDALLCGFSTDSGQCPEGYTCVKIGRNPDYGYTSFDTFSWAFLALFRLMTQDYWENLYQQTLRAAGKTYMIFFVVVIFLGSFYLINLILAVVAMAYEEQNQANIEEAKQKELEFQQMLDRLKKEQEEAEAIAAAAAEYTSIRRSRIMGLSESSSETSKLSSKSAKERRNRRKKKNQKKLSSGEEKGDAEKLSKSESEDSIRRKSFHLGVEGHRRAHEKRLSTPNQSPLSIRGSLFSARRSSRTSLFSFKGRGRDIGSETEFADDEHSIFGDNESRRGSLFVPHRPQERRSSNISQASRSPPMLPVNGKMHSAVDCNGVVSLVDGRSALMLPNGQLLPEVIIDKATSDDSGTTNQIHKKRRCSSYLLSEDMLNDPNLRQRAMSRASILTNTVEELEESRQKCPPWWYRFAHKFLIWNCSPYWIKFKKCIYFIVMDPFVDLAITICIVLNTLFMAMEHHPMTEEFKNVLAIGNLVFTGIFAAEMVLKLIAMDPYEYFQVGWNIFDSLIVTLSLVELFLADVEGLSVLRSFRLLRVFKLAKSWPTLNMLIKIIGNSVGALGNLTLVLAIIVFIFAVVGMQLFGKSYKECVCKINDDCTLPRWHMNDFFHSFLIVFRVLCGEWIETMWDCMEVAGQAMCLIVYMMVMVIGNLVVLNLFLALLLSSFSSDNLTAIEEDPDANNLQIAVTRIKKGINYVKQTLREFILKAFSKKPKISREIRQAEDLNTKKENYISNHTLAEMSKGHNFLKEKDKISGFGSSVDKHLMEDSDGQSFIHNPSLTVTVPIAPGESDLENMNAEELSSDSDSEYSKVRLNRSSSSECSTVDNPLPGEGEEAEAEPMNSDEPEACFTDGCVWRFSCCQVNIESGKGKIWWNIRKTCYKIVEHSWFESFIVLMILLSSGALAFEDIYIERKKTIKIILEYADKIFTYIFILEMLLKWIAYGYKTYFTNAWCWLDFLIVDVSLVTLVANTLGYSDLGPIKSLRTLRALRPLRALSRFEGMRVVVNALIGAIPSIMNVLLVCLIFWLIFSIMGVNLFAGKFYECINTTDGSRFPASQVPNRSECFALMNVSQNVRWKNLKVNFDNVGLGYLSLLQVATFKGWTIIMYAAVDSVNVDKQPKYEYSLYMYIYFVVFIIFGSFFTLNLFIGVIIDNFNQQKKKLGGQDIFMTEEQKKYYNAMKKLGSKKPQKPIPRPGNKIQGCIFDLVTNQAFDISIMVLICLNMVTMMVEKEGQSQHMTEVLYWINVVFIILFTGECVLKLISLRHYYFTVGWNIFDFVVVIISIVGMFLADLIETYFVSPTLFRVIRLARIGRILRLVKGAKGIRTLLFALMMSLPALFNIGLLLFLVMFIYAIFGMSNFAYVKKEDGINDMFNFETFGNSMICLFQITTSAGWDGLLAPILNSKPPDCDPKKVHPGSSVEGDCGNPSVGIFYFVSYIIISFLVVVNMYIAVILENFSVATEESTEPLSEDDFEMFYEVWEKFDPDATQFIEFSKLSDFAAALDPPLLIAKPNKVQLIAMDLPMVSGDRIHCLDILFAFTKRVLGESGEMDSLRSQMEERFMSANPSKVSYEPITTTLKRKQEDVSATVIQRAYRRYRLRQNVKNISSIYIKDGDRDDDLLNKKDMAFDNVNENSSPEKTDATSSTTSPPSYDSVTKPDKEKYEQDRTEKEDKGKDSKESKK
`CC(C)C[C@@](C)(O)CN1CCN(c2cccc3c2cnn3-c2ccccc2F)C1=O` [Example 167, 1-[1-(2-fluorophenyl)-1H-indazol-4-yl]-3-[(2R)-2-hydroxy-2,4-dimethylpentyl]imidazolidin-2-one]: the IC50 worked out at 0.893 µM.
To `CC(C)C[C@](C)(O)CN1CCN(c2cccc3c2cnn3-c2ccccc2F)C1=O` [Example 168, 1-[1-(2-fluorophenyl)-1H-indazol-4-yl]-3-[(2S)-2-hydroxy-2,4-dimethylpentyl]imidazolidin-2-one] belongs 0.816 µM.
Regarding `O=C1N(CC(=O)N2CCC[C@H]2C(F)(F)F)CCN1c1cccc2c1cnn2-c1ccccc1F` [Example 169, 1-[1-(2-fluorophenyl)-1H-indazol-4-yl]-3-{2-oxo-2-[(2S)-2-(trifluoromethyl)pyrrolidin-1-yl]ethyl}imidazolidin-2-one], the IC50 was determined as 1.07 µM.
Under `COC[C@H]1CCCN1C(=O)CN1CCN(c2cccc3c2cnn3-c2ccccc2F)C1=O` [Example 170, 1-[1-(2-fluorophenyl)-1H-indazol-4-yl]-3-{2-[(2R)-2-(methoxymethyl)pyrrolidin-1-yl]-2-oxoethyl}imidazolidin-2-one] stands 0.795 µM; under `O=C1N(CC(=O)N2CCC[C@@H]2C(F)(F)F)CCN1c1cccc2c1cnn2-c1ccccc1F` [Example 171, 1-[1-(2-fluorophenyl)-1H-indazol-4-yl]-3-{2-oxo-2-[(2R)-2-(trifluoromethyl)pyrrolidin-1-yl]ethyl}imidazolidin-2-one], 0.285 µM.
As to `CC1(C)CCCN1C(=O)CN1CCN(c2cccc3c2cnn3-c2ccccc2F)C1=O` [Example 172, 1-[2-(2,2-dimethylpyrrolidin-1-yl)-2-oxoethyl]-3-[1-(2-fluorophenyl)-1H-indazol-4-yl]imidazolidin-2-one], the IC50 stood at 2.6 µM.
In the case of `O=C(CN1CCN(c2cccc3c2cnn3-c2ccccc2F)C1=O)NCc1cccc(F)c1` [Example 173, N-(3-fluorobenzyl)-2-{3-[1-(2-fluorophenyl)-1H-indazol-4-yl]-2-oxoimidazolidin-1-yl}acetamide], the IC50 is 0.8 µM.
To `O=C(CN1CCN(c2cccc3c2cnn3-c2ccccc2F)C1=O)NCc1cc(F)ccc1F` [Example 174, N-(2,5-difluorobenzyl)-2-{3-[1-(2-fluorophenyl)-1H-indazol-4-yl]-2-oxoimidazolidin-1-yl}acetamide] belongs 0.849 µM; to `Cc1ccccc1CNC(=O)CN1CCN(c2cccc3c2cnn3-c2ccccc2F)C1=O` [Example 175, 2-{3-[1-(2-fluorophenyl)-1H-indazol-4-yl]-2-oxoimidazolidin-1-yl}-N-(2-methylbenzyl)acetamide], 2.65 µM; to `C[C@@H](NC(=O)CN1CCN(c2cccc3c2cnn3-c2ccccc2F)C1=O)c1ccccc1` [Example 176, 2-{3-[1-(2-fluorophenyl)-1H-indazol-4-yl]-2-oxoimidazolidin-1-yl}-N-[(1R)-1-phenylethyl]acetamide], 0.983 µM.
As to `O=C(CN1CCN(c2cccc3c2cnn3-c2ccccc2F)C1=O)NCc1cc(F)cc(F)c1` [Example 177, N-(3,5-difluorobenzyl)-2-{3-[1-(2-fluorophenyl)-1H-indazol-4-yl]-2-oxoimidazolidin-1-yl}acetamide], the IC50 was 0.965 µM.
Under `C[C@H](NC(=O)CN1CCN(c2cccc3c2cnn3-c2ccccc2F)C1=O)c1ccccc1` [Example 178, 2-{3-[1-(2-fluorophenyl)-1H-indazol-4-yl]-2-oxoimidazolidin-1-yl}-N-[(1S)-1-phenylethyl]acetamide] stands 2 µM; under `O=C1N(Cc2nc3ccccc3s2)CCN1c1cccc2c1cnn2-c1ccccc1F` [Example 179, 1-(1,3-benzothiazol-2-ylmethyl)-3-[1-(2-fluorophenyl)-1H-indazol-4-yl]imidazolidin-2-one], 15.4 µM.
To `CC(C)C(C)(O)CN1CCN(c2cccc3c2cnn3-c2ccccc2F)C1=O` (centres unmarked) [Example 180, 1-[1-(2-fluorophenyl)-1H-indazol-4-yl]-3-(2-hydroxy-2,3-dimethylbutyl)imidazolidin-2-one] belongs 3.23 µM; to `O=C1N(CC2CCCC2)CCN1c1cccc2c1cnn2-c1ccccc1F` [Example 181, 1-(cyclopentylmethyl)-3-[1-(2-fluorophenyl)-1H-indazol-4-yl]imidazolidin-2-one], 6.27 µM.
Under `O=C1N(CC2CCCO2)CCN1c1cccc2c1cnn2-c1ccccc1F` (centres unmarked) [Example 182, 1-[1-(2-fluorophenyl)-1H-indazol-4-yl]-3-(tetrahydrofuran-2-ylmethyl)imidazolidin-2-one] stands 2.62 µM; under `O=C(CN1CCN(c2cccc3c2cnn3-c2ccccc2F)C1=O)C1CC1` [Example 183, 1-(2-cyclopropyl-2-oxoethyl)-3-[1-(2-fluorophenyl)-1H-indazol-4-yl]imidazolidin-2-one], 2.93 µM; under `O=C1N(c2cccc3c2cnn3-c2ccccc2F)CCN1C1CCC1` [Example 184, 1-cyclobutyl-3-[1-(2-fluorophenyl)-1H-indazol-4-yl]imidazolidin-2-one], 1.06 µM.
On to `O=C1N(c2cccc3c2cnn3-c2ccccc2F)CCN1[C@H]1CO[C@@H](c2ccccc2F)C1` [Example 185, 1-[1-(2-fluorophenyl)-1H-indazol-4-yl]-3-[(3R,5R)-5-(2-fluorophenyl)tetrahydrofuran-3-yl]imidazolidin-2-one], for which the IC50 is 0.965 µM.
To `CC(C)CC(O)CN1CCCN(c2cccc3c2cnn3-c2ccccc2F)C1=O` (centres unmarked) [Example 186, 1-[1-(2-fluorophenyl)-1H-indazol-4-yl]-3-(2-hydroxy-4-methylpentyl)tetrahydropyrimidin-2(1H)-one] belongs 1.41 µM; to `C[C@H]1CCCN1C(=O)CN1CCCN(c2cccc3c2cnn3-c2ccccc2F)C1=O` [Example 187, 1-[1-(2-fluorophenyl)-1H-indazol-4-yl]-3-{2-[(2S)-2-methylpyrrolidin-1-yl]-2-oxoethyl}tetrahydropyrimidin-2(1H)-one], 1.91 µM; to `CC(C)CC(=O)CN1CCCN(c2cccc3c2cnn3-c2ccccc2F)C1=O` [Example 188, 1-[1-(2-fluorophenyl)-1H-indazol-4-yl]-3-(4-methyl-2-oxopentyl)tetrahydropyrimidin-2(1H)-one], 1.66 µM.
Regarding `O=C1N(CC2CC2(F)F)CCN1c1cccc2c1cnn2-c1ccccc1F` (centres unmarked) [Example 189, 1-[(2,2-difluorocyclopropyl)methyl]-3-[1-(2-fluorophenyl)-1H-indazol-4-yl]imidazolidin-2-one], the IC50 was 1.02 µM.
Take `O=C1N(c2cccc3c2cnn3-c2ccccc2F)CCN1c1cnn2cccnc12` [Example 190, 1-[1-(2-fluorophenyl)-1H-indazol-4-yl]-3-(pyrazolo[1,5-a]pyrimidin-3-yl)imidazolidin-2-one]: the IC50 was 1.09 µM.
Turning to `Cn1cc2cc(N3CCN(c4cccc5c4cnn5-c4ccccc4F)C3=O)ccc2n1` [Example 191, 1-[1-(2-fluorophenyl)-1H-indazol-4-yl]-3-(2-methyl-2H-indazol-5-yl)imidazolidin-2-one], the IC50 was 2.95 µM.
Under `O=C1N(c2ccc(C3CC3)o2)CCN1c1cccc2c1cnn2-c1ccccc1F` [Example 192, 1-(5-cyclopropyl-2-furyl)-3-[1-(2-fluorophenyl)-1H-indazol-4-yl]imidazolidin-2-one] stands 1.36 µM; under `O=C1N(CCc2ccccc2)CCN1c1cccc2c1cnn2-c1ccccc1F` [Example 193, 1-[1-(2-fluorophenyl)-1H-indazol-4-yl]-3-(2-phenylethyl)imidazolidin-2-one], 0.998 µM.
Consider `O=C1N(CC2CC2)CCN1c1cccc2c1cnn2-c1ccccc1F` [Example 194, 1-(cyclopropylmethyl)-3-[1-(2-fluorophenyl)-1H-indazol-4-yl]imidazolidin-2-one], for which the IC50 was determined as 0.613 µM.
Regarding `C[C@@]1(c2cccc(F)c2)C[C@H](N2CCN(c3cccc4c3cnn4-c3ccccc3F)C2=O)CO1` [Example 195, 2,5-anhydro-1,3,4-trideoxy-2-(3-fluorophenyl)-4-{3-[1-(2-fluorophenyl)-1H-indazol-4-yl]-2-oxoimidazolidin-1-yl}-D-erythro-pentitol], the IC50 was found to be 1.39 µM.
To `O=C1N(c2cccc3c2cnn3-c2ccccc2F)CCN1[C@H]1CO[C@H](c2cccc(F)c2)C1` [Example 196, 1-[1-(2-fluorophenyl)-1H-indazol-4-yl]-3-[(3R,5S)-5-(3-fluorophenyl)tetrahydrofuran-3-yl]imidazolidin-2-one] belongs 4.31 µM; to `O=C1N(Cc2cc(F)ccc2F)CCN1c1cccc2c1cnn2-c1ccccc1F` [Example 197, 1-(2,5-difluorobenzyl)-3-[1-(2-fluorophenyl)-1H-indazol-4-yl]imidazolidin-2-one], 2.14 µM; to `O=C1N(Cc2cccnc2)CCN1c1cccc2c1cnn2-c1ccccc1F` [Example 198, 1-[1-(2-fluorophenyl)-1H-indazol-4-yl]-3-(pyridin-3-ylmethyl)imidazolidin-2-one], 1.24 µM.
`Cc1cc(CN2CCN(c3cccc4c3cnn4-c3ccccc3F)C2=O)no1` [Example 199, 1-[1-(2-fluorophenyl)-1H-indazol-4-yl]-3-[(5-methyl-1,2-oxazol-3-yl)methyl]imidazolidin-2-one]: the IC50 came to 2.97 µM.
Consider `O=C1N(CC2COC2)CCN1c1cccc2c1cnn2-c1ccccc1F` [Example 200, 1-[1-(2-fluorophenyl)-1H-indazol-4-yl]-3-(oxetan-3-ylmethyl)imidazolidin-2-one], for which the IC50 worked out at 3.61 µM.
For `N#C[C@H]1CCCN1C(=O)CN1CCN(c2cccc3c2cnn3-c2ccccc2F)C1=O` [Example 201, (2R)-1-({3-[1-(2-fluorophenyl)-1H-indazol-4-yl]-2-oxoimidazolidin-1-yl}acetyl)pyrrolidine-2-carbonitrile], the IC50 worked out at 0.661 µM.
